Data taken from ChEMBL document CHEMBL1152385, “Cyanoguanidine-based lactam derivatives as a novel class of orally bioavailable factor Xa inhibitors” (Bioorg Med Chem Lett, 2009).
Each block holds one compound with its values, some of them ahead of it.

Tests used:
[1] = molecular target: Coagulation factor X (Homo sapiens, UniProt P00742); assay: Inhibition of human factor 10a-mediated cleavage of synthetic substrate S-2222
[2] = system: Plasma
[3] = Bioavailability in monkey at 10 mg/kg, po; format: ADME, organism-based, Macaca mulatta; conditions: rhesus monkey, in vivo
[4] = molecular target: Tissue-type plasminogen activator (Homo sapiens, UniProt P00750); assay: Inhibition of t-PA
[5] = Volume of distribution at steady state in rat at 7 mg/kg, iv; format: ADME, organism-based; design: dose 7 mg/kg, route intravenous; conditions: in vivo, read-out: Vdss
[6] = Oral bioavailability in dog at 7 mg/kg; format: ADME, organism-based, Canis lupus familiaris; conditions: in vivo
[7] = Half life in rat at 7 mg/kg, iv; format: ADME, organism-based; design: dose 7 mg/kg, route intravenous; conditions: in vivo
[8] = molecular target: Plasminogen (Homo sapiens, UniProt P00747); assay: Inhibition of plasmin
Sequence of Plasminogen (P00747 97-580 limits assumed): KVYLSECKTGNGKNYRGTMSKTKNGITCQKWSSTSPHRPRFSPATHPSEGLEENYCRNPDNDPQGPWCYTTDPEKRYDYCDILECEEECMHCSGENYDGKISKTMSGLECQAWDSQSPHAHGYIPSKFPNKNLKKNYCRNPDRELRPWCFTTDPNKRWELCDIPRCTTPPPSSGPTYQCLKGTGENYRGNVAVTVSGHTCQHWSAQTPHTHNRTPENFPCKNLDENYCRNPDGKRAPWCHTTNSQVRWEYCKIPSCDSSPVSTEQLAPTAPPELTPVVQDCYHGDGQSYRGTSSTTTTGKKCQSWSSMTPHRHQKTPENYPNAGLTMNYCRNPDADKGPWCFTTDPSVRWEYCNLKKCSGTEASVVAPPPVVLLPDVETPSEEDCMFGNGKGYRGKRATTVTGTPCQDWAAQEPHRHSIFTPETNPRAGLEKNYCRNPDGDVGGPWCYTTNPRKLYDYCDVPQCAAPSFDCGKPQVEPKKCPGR
Sequence of Plasminogen (P00747 581-810 limits assumed): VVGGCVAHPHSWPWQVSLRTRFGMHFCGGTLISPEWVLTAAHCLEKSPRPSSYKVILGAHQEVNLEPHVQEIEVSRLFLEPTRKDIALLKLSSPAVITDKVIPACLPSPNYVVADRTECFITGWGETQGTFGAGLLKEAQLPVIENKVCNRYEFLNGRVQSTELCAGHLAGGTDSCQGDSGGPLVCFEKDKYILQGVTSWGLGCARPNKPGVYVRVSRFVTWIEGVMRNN

[9] = Half life in monkey at 10 mg/kg, iv; format: ADME, organism-based, Macaca mulatta; design: dose 10 mg/kg, route intravenous; conditions: rhesus monkey, in vivo
[10] = molecular target: Urokinase-type plasminogen activator (Homo sapiens, UniProt P00749); assay: Inhibition of u-PA
[11] = Mean residence time in rat at 7 mg/kg, iv; format: ADME, organism-based; design: dose 7 mg/kg, route intravenous; conditions: in vivo
[12] = system: Canis familiaris; assay: Total clearance in dog at 8.3 mg/kg, iv; format: ADME, organism-based, Canis lupus familiaris; design: dose 8.3 mg/kg, route intravenous; conditions: in vivo
[13] = molecular target: T1, Cytochrome P450 3A4 (Homo sapiens, UniProt P08684); assay: Inhibition of CYP3A4 using BFC as substrate; format: ADME
T1 sequence (P08684 whole entry): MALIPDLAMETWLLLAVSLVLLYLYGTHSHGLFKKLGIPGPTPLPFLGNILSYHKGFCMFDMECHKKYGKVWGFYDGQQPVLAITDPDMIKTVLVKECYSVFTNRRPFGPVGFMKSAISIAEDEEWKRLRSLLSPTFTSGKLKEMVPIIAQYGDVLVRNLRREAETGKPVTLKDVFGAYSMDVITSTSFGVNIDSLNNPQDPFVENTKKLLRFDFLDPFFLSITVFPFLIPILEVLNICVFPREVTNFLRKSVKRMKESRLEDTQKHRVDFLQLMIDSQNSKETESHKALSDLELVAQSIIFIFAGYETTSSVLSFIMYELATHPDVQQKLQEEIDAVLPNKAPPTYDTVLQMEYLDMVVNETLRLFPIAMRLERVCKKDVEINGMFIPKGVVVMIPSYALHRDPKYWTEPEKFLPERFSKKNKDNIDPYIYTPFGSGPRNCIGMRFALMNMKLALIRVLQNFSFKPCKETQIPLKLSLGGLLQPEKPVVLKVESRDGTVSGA

[14] = molecular target: T2, Cytochrome P450 2D6 (Homo sapiens, UniProt P10635); assay: Inhibition of CYP2D6; format: ADME
T2 sequence (P10635 whole entry): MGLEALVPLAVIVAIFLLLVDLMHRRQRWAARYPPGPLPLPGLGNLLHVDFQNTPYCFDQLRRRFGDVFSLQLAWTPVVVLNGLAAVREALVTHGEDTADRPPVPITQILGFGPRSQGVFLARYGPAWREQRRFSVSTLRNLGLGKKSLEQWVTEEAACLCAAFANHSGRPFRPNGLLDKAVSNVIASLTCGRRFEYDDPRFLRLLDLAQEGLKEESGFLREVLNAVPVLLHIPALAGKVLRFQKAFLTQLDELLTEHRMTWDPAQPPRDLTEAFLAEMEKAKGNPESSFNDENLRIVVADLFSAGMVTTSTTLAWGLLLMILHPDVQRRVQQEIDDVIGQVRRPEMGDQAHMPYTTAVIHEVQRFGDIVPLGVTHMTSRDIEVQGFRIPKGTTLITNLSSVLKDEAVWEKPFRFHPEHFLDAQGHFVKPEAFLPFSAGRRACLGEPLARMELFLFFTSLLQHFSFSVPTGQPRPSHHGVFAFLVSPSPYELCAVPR

[15] = molecular target: T2, Cytochrome P450 2D6; assay: Inhibition of CYP2D6 in human TC5 cells; format: ADME, cell-based
[16] = molecular target: Amine oxidase [flavin-containing] A (Rattus norvegicus, UniProt P21396); assay: Inhibition of rat MAO-A at 10 uM
[17] = Half life in dog at 8.3 mg/kg, iv; format: ADME, organism-based, Canis lupus familiaris; design: dose 8.3 mg/kg, route intravenous; conditions: in vivo
[18] = molecular target: T3, Cytochrome P450 2C19 (Homo sapiens, UniProt P33261); assay: Inhibition of CYP2C19 in human TC5 cells; format: ADME, cell-based
T3 sequence (P33261 whole entry): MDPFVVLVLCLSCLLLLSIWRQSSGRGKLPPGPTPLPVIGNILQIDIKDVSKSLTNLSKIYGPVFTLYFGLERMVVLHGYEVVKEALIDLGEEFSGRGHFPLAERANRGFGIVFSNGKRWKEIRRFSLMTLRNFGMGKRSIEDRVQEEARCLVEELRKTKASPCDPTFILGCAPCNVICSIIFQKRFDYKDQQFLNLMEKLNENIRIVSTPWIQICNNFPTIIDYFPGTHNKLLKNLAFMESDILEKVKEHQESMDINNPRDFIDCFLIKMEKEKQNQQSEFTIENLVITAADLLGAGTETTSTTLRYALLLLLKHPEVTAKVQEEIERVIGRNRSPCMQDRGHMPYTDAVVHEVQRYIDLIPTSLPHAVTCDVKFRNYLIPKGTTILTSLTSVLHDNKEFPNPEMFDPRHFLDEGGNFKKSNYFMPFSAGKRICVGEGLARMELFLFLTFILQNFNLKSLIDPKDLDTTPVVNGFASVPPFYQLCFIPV

[19] = molecular target: Cytochrome P450 2B6 (Homo sapiens, UniProt P20813); assay: Inhibition of CYP2B6; format: ADME
[20] = system: Rattus norvegicus; assay: Total clearance in rat at 7 mg/kg, iv; format: ADME, organism-based; design: dose 7 mg/kg, route intravenous; conditions: in vivo
[21] = Volume of distribution at steady state in dog at 8.3 mg/kg, iv; format: ADME, organism-based, Canis lupus familiaris; design: dose 8.3 mg/kg, route intravenous; conditions: in vivo, read-out: Vdss
[22] = molecular target: T3, Cytochrome P450 2C19; assay: Inhibition of CYP2C19; format: ADME
[23] = molecular target: T4, Cytochrome P450 2C9 (Homo sapiens, UniProt P11712); assay: Inhibition of CYP2C9; format: ADME
T4 sequence (P11712 whole entry): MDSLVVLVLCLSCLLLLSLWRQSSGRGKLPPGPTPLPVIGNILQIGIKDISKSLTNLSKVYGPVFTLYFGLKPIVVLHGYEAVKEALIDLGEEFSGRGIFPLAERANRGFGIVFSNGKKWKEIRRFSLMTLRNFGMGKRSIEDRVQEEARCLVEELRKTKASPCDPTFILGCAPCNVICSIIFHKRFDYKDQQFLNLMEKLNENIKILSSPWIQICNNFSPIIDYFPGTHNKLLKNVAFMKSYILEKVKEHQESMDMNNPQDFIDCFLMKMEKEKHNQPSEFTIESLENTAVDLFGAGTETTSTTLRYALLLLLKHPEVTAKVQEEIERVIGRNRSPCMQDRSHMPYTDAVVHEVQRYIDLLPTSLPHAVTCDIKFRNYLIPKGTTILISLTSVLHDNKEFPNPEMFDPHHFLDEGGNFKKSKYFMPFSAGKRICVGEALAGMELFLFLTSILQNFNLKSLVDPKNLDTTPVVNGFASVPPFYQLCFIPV

[24] = molecular target: Nuclear receptor subfamily 1 group I member 2 (Homo sapiens, UniProt O75469); assay: Activity at PXR
Sequence of Nuclear receptor subfamily 1 group I member 2 (O75469 whole entry): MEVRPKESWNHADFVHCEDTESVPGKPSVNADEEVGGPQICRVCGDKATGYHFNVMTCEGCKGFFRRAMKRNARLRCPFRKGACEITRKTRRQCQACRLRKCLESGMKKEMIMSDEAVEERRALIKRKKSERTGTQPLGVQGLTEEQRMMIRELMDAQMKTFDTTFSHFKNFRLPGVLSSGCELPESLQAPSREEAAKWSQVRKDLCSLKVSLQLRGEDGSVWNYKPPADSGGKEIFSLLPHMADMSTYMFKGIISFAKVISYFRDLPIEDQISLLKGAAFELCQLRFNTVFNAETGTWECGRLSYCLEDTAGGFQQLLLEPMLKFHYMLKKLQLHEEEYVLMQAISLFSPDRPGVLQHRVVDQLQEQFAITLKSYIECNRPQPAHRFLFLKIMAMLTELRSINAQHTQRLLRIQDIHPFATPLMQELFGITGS

[25] = molecular target: T4, Cytochrome P450 2C9; assay: Inhibition of CYP2C9 in human TC5 cells; format: ADME, cell-based
[26] = molecular target: Vitamin K-dependent protein C (Homo sapiens, UniProt P04070); assay: Inhibition of activated protein C
Sequence of Vitamin K-dependent protein C (P04070 43-197 limits assumed): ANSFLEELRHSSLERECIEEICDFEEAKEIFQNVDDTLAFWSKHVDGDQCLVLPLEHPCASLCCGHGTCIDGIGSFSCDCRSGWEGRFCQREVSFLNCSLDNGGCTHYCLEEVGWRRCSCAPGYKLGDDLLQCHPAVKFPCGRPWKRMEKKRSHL
Sequence of Vitamin K-dependent protein C (P04070 212-461 limits assumed): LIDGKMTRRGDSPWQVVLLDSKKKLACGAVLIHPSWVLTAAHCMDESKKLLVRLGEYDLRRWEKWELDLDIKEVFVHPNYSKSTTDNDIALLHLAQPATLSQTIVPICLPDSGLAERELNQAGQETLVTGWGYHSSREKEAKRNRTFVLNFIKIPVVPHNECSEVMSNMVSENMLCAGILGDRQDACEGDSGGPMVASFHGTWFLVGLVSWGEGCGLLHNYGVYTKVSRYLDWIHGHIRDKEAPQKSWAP

[27] = molecular target: Cytochrome P450 2C8 (Homo sapiens, UniProt P10632); assay: Inhibition of CYP2C8; format: ADME
[28] = system: Rhesus monkey; assay: Total clearance in monkey at 10 mg/kg, iv; format: ADME, organism-based, Macaca mulatta; design: dose 10 mg/kg, route intravenous; conditions: in vivo
[29] = molecular target: Cytochrome P450 1A2 (Homo sapiens, UniProt P05177); assay: Inhibition of CYP1A2; format: ADME
[30] = molecular target: T1, Cytochrome P450 3A4; assay: Inhibition of CYP3A4 in human TC5 cells; format: ADME, cell-based
[31] = molecular target: T5, Voltage-gated L-type calcium channel (Rattus norvegicus, UniProt P22002+Q02485+P27732); assay: Inhibition of rat DHP binding site of L-type calcium channel at 10 uM
[32] = molecular target: Prothrombin (Homo sapiens, UniProt P00734); assay: Inhibition of thrombin
[33] = Oral Bioavailability in rat at 10 mg/kg; format: ADME, organism-based; conditions: in vivo
[34] = Mean residence time in monkey at 10 mg/kg, iv; format: ADME, organism-based, Macaca mulatta; design: dose 10 mg/kg, route intravenous; conditions: rhesus monkey, in vivo
[35] = molecular target: T1, Cytochrome P450 3A4; assay: Inhibition of CYP3A4 using BZR as substrate; format: ADME
[36] = molecular target: Amine oxidase [flavin-containing] B (Rattus norvegicus, UniProt P19643); assay: Inhibition of rat MAO-B at 10 uM
Sequence of Amine oxidase [flavin-containing] B (P19643 whole entry): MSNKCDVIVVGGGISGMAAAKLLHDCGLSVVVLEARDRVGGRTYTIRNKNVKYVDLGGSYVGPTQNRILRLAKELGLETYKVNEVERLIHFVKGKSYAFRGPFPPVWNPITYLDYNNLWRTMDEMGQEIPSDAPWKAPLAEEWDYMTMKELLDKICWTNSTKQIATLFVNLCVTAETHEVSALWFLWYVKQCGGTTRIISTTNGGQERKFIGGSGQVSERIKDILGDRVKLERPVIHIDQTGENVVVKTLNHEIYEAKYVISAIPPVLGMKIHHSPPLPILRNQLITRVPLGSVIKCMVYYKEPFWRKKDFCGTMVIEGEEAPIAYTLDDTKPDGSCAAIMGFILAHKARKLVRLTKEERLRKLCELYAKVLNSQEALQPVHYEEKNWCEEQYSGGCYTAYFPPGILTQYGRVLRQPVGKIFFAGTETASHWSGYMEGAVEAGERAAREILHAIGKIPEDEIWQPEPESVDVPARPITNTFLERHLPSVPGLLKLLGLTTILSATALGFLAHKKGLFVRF

[37] = Volume of distribution at steady state in monkey at 10 mg/kg, iv; format: ADME, organism-based, Macaca mulatta; design: dose 10 mg/kg, route intravenous; conditions: rhesus monkey, in vivo, read-out: Vdss
[38] = molecular target: T5, Voltage-gated L-type calcium channel; assay: Inhibition of rat verapamil binding site of L-type calcium channel at 10 uM
[39] = Mean residence time in dog at 8.3 mg/kg, iv; format: ADME, organism-based, Canis lupus familiaris; design: dose 8.3 mg/kg, route intravenous; conditions: in vivo

Sequence of Coagulation factor X (P00742 41-179 limits assumed): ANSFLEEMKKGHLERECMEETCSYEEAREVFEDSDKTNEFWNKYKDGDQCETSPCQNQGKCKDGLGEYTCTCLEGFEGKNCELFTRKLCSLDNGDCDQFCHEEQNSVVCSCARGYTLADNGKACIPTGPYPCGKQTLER
Sequence of Coagulation factor X (P00742 235-488 limits assumed): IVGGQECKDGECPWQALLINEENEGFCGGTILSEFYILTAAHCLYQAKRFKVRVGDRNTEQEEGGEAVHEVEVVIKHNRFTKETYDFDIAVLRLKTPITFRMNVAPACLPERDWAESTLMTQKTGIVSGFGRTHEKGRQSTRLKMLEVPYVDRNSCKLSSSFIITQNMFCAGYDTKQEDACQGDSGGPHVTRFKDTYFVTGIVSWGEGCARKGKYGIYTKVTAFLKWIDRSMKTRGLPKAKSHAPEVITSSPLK

Structure (SMILES): CC(=O)NC[C@@H]1CCCN1C(=O)CN1CCCC[C@H](N/C(=N\C#N)Nc2ccc3oc(C)cc3c2)C1=O
- IC50 [1]: 0.054 µM
- EC [2]: >50 µM

Structure (SMILES): Cc1cc2cc(N/C(=N\C#N)N[C@H]3CCCCN(CC(=O)N4CCCC4)C3=O)cc(Cl)c2o1
- IC50 [1]: 0.027 µM

Structure (SMILES): Cc1cc2cc(N/C(=N\C#N)N[C@H]3CCCCN(CC(=O)N4CCC[C@@H]4CN)C3=O)ccc2o1
- IC50 [1]: 0.022 µM
- EC [2]: 27 µM

Structure (SMILES): CC(=O)NC[C@H]1CCCN1C(=O)CN1CCCC[C@H](N/C(=N\C#N)Nc2ccc3oc(C)cc3c2)C1=O
- IC50 [1]: 0.028 µM
- EC [2]: 33 µM

Structure (SMILES): N#C/N=C(\Nc1ccc2oc(C#N)cc2c1)N[C@H]1CCCCN(CC(=O)N2CCCC2)C1=O
- IC50 [1]: 2.6 µM

Structure (SMILES): Cc1cn2cc(N/C(=N\C#N)N[C@H]3CCCCN(CC(=O)N4CCCC4)C3=O)ccc2n1
- IC50 [1]: > 34 µM

Structure (SMILES): Cc1cc2cc(N/C(=N\C#N)N[C@H]3CCCCN(CC(=O)N4CCC(Cc5ccccc5)C4)C3=O)ccc2o1 (stereo partly drawn)
- IC50 [1]: 0.053 µM
- EC [2]: >50 µM

Structure (SMILES): Cc1cc2cc(N/C(=N\C#N)N[C@H]3CCCN(CC(=O)N4CCCC4)C3=O)ccc2o1
- IC50 [1]: 0.928 µM

Structure (SMILES): Cc1cc2cc(N/C(=N\C#N)N[C@H]3CCN(CC(=O)N4CCCC4)C3=O)ccc2o1
- IC50 [1]: > 32 µM

Structure (SMILES): N#C/N=C(\Nc1ccc2ccccc2c1)N[C@H]1CCCCN(CC(=O)N2CCCC2)C1=O
- IC50 [1]: 0.78 µM

Structure (SMILES): Cc1cc2cc(N/C(=N\C#N)N[C@H]3CCCCN(CC(=O)N4C5CCC4CNC5)C3=O)ccc2o1
- IC50 [1]: 0.005 µM
- EC [2]: 11.5 µM

Second part, led by results:

- IC50 [1]: 15.5 µM
Structure (SMILES): CCc1cc2cc(N=C(NC#N)N[C@H]3CCCCN(CC(=O)N4CCCC4)C3=O)ccc2o1

- bioavailability [3]: 49%
- Ki [4]: 3.7 µM
- Vd [5]: 0.19 L/kg
- bioavailability [6]: 77%
- half-life [7]: 2.4 h
- Ki [8]: > 16 µM
- half-life [9]: 2.9 h
- Ki [10]: > 7.8 µM
- MRT [11]: 1.9 h
- clearance [12]: 0.0072 L/h/kg
- IC50 [13]: 18.5 µM
- IC50 [14]: > 40 µM
- inhibition (INH) [16]: Not Active
- half-life [17]: 10.3 h
- IC50 [19]: > 40 µM
- clearance [20]: 0.102 L/h/kg
- Vd [21]: 0.11 L/kg
- IC50 [22]: > 40 µM
- IC50 [23]: 29.2 µM
- EC50 [24]: > 25 µM
- Ki [26]: > 18 µM
- IC50 [27]: > 40 µM
- clearance [28]: 0.132 L/h/kg
- IC50 [29]: > 40 µM
- inhibition (INH) [31]: Not Active
- Ki [32]: 6.6 µM
- bioavailability [33]: 50%
- MRT [34]: 1.5 h
- IC50 [35]: > 40 µM
- inhibition (INH) [36]: Not Active
- Vd [37]: 1.8 L/kg
- inhibition (INH) [38]: Not Active
- MRT [39]: 16 h
Structure (SMILES): Cc1cc2cc(N=C(NC#N)N[C@H]3CCCCN(CC(=O)N4CCCC4)C3=O)ccc2o1
- IC50 [15]: > 200 µM
- IC50 [18]: > 200 µM
- IC50 [25]: > 200 µM
- IC50 [30]: > 200 µM

- IC50 [1]: > 34 µM
Structure (SMILES): Cc1cc2ccc(N/C(=N\C#N)N[C@H]3CCCCN(CC(=O)N4CCCC4)C3=O)cc2o1

- IC50 [1]: 2.88 µM
Structure (SMILES): Cc1cc2cc(N=C(NC#N)N[C@H]3CCCCN(CC(=O)N4CCCC4)C3=O)ccc2s1

- IC50 [1]: 2.68 µM
Structure (SMILES): Cc1nc2cc(N/C(=N\C#N)N[C@H]3CCCCN(CC(=O)N4CCCC4)C3=O)ccc2o1

- IC50 [1]: 2.94 µM
Structure (SMILES): Cc1coc2ccc(N=C(NC#N)N[C@H]3CCCCN(CC(=O)N4CCCC4)C3=O)cc12
